Measurements: US7964633B2, “Sulfonamide derivatives” (Hoffmann-La Roche Inc., priority 2006, dated 2011)
pIC50: −log10 of the molar value.

Assays:
human liver FBPase = molecular target: T1, human liver FBPase (Homo sapiens, UniProt P09467); test: FBPase assay (malachite green phosphate release); assay type: biochemical; conditions: recombinant human liver FBPase, 50 μM fructose-1,6-bisphosphate, pH 7.2, 50 minutes at room temperature
T1 construct: host or cells: E. coli
T1 sequence (P09467 2-338 limits assumed): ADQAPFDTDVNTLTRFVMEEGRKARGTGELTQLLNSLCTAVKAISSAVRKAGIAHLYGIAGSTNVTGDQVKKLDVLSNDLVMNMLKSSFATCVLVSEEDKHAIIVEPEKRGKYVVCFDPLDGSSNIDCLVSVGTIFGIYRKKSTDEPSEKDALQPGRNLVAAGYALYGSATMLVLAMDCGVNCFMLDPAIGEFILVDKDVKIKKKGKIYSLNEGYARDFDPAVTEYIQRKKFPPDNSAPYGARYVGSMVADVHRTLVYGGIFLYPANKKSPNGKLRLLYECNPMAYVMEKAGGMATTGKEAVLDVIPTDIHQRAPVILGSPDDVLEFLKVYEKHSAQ
Experimental: The following tests were carried out for evaluating the inhibitory activity of the compounds of the present invention against human liver FBPase (Swissprot Data base reference PO9467, entry F16P_HUMAN).
Enzyme preparation: Human liver FBPase cDNA (NM_000507) was purchased from Origene Technologies, Inc, subcloned in a vector for expression in E. Coli., and sequenced. Recombinant human liver FBPase (hIFBPase) was purified according to the following protocol that uses heat denaturation similarly to that described by El-Maghrabi et. al. [El-Maghrabi, M. R. et al. “Isolation of a human liver fructose-1,6-bisphosphatase cDNA and expression of the protein in Escherichia coli.” J Biol Chem 268:9466-9472, 1993.]. […] Purity of the enzyme preparation was >90% as assessed by Mass spectrometry.
In vitro activity: Recombinant human liver FBPase (hIFBPase) activity was assayed through measuring the inorganic phosphate release that results from the hydrolysis of Fructose-1,6-bisphosphate by the enzyme. […] Anal. Biochem., 171:266-270, 1988], inorganic phosphate can be readily quantified by spectrophotometry at 620 nm after complexation with ammonium molybdate/malachite green reagent. […] Under these conditions, the assay was linear with time and able to detect FBPase inhibition after spectrophotometric read-out at 620 nm.

| pIC50 (human liver FBPase) | melting point [°C] | SMILES |
| --- | --- | --- |
| 7.77 |  | O=C(NCCCCCCNC(=O)NS(=O)(=O)c1cccc(Cl)c1)NS(=O)(=O)c1cccc(Cl)c1 [Example 1] |
|  | 165 to 167 | O=C(NCCSSCCNC(=O)NS(=O)(=O)c1cccc(Cl)c1)NS(=O)(=O)c1cccc(Cl)c1 [Example 3, N,N′-[dithiobis(ethane-2,1-diyliminocarbonyl)]bis(3-chlorobenzenesulfonamide)] |
| 7.66 |  | Cc1cccc(S(=O)(=O)NC(=O)NCCCCCCNC(=O)NS(=O)(=O)c2cccc(C)c2)c1 [Example 8, N,N′-[hexane-1,6-diylbis(iminocarbonyl)]bis(3-methylbenzenesulfonamide)] |
